According to US8846704B2, “Thiopyrimidine-based compounds and uses thereof” (YM Biosciences Austraila Pty Ltd, priority 2007, dated 2014):

Assays:
human JAK3 = molecular target: T1, human JAK3 (Homo sapiens, UniProt P52333); test: Alphascreen tyrosine kinase enzyme assay, JAK3 kinase domain; type: biochemical; settings: read-out: JAK3 IC50_nM
T1 construct: The kinase domain of human JAK3 was amplified; GST (N); made in house; host or cells: Sf9 insect cells (baculovirus)
How it was run: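 GST-affinity-purified human JAK3 kinase domain (baculovirus/Sf9) was pre-incubated 20 min with compound ([…]) in HEPES pH 7.5 buffer with MgCl2, vanadate and Tween 20. Biotinylated peptide substrate ([…]) and ATP were then added; phosphotyrosine was detected by AlphaScreen PY100 acceptor and streptavidin donor beads after 2–3 h.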

[1] = molecular target: T2, BaF3 TELJAK2 cells (BafT_J2) (Homo sapiens, UniProt O60674); test: Cellular screening, BaF3 TEL:JAK2 cells, Alamar Blue; type: cell-based; settings: 40 hr, read-out: BafT_J2 IC50_nM
T2 construct: fused on or other part: TEL (ETV6) N-terminal part, coding nucleotides 1-487, serves as the oligomerising partner; It is fused through a Sal I site to the JAK2 kinase domain and expressed from pTRE2 in BaF3 cells bearing pTET-off; P41212 (Transcription factor ETV6)
How it was run: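 Tet-off BaF3 cells carrying a TEL (nt 1-487)–JAK2 kinase-domain fusion, grown factor-independently in DMEM with 10% Tet-approved FBS without WEHI 3B medium. Compounds were diluted to 20 μM in screening plates, and cells (50,000–200,000 cell/mL at 1.1×) were incubated 40 hr at 37 °C, 5% CO2. Alamar Blue was then added for 4-6 hours; read at 544 nm.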

T2 sequence (O60674 whole entry, change not shown, the tested form may be a part): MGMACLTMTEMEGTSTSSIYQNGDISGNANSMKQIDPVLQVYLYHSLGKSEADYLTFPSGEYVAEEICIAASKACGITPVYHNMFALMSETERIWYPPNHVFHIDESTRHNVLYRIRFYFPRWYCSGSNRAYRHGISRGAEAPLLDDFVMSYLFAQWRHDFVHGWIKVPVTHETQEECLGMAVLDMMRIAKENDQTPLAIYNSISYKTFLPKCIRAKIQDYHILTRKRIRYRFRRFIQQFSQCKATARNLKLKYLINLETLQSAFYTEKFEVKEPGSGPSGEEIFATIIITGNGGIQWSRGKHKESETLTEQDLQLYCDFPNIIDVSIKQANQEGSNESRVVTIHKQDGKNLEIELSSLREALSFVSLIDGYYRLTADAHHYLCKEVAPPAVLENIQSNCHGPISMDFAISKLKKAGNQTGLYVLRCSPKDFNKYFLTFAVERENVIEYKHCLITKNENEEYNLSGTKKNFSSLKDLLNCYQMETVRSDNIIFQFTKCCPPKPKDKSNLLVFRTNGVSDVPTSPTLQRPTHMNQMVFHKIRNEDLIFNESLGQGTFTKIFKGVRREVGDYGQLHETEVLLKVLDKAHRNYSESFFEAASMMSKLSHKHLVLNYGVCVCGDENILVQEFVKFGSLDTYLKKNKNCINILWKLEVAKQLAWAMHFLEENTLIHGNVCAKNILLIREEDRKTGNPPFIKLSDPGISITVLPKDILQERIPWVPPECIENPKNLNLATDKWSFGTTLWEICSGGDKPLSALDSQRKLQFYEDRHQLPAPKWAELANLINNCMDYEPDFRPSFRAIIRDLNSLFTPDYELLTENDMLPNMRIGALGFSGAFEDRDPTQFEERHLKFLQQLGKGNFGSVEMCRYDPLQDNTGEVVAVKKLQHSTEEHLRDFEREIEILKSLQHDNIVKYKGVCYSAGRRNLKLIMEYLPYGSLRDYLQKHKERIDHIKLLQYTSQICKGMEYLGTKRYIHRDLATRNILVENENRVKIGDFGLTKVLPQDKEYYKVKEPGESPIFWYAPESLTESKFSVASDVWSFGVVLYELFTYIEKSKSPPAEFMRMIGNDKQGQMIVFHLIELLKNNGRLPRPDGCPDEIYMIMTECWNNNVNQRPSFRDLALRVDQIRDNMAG
T1 sequence (P52333 822-1111 limits assumed): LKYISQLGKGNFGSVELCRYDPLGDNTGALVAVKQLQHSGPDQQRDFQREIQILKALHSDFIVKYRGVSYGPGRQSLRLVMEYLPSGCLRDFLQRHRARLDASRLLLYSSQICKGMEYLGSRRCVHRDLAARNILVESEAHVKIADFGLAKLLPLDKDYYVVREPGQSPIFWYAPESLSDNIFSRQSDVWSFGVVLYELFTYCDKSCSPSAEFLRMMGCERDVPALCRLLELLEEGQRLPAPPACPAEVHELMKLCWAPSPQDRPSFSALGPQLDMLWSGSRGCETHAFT

Structure (SMILES) | IC50 (human JAK3) [nM] | GI50 [1] [nM]
Cc1cnc(Nc2cccc(NS(C)(=O)=O)c2)nc1Sc1ccc(CO)cc1 [Compound 226, N-(3-(4-(4-(hydroxymethyl)phenylthio)-5-methylpyrimidin-2-ylao)phenyl)methanesulfonamide] | < 500 | < 5000
Cc1cnc(Nc2ccc(N3CCOCC3)cc2)nc1Sc1ccc(C(C#N)N2CCOCC2)cc1 (centres unmarked) [Compound 223, 2-(4-(5-methyl-2-(4-morpholinophenylao)pyrimidin-4-ylthio)phenyl)-2-morpholinoacetonitrile] | < 500 | < 5000
Cc1cnc(Nc2ccc(N3CCOCC3)cc2)nc1Sc1cccc(CO)c1 [Compound 212, (3-(5-methyl-2-(4-morpholinophenylao)pyrimidin-4-ylthio)phenyl)methanol] | < 500 | > 20000
NC(=O)c1ccc(Sc2ccnc(Nc3ccc(N4CCOCC4)cc3)n2)cc1 [Compound 207, 4-(2-(4-morpholinophenylao)pyrimidin-4-ylthio)benzamide] | < 500 | > 20000
Cc1cnc(Nc2ccc(N3CCOCC3)cc2)nc1Sc1ccc(N2CCSCC2=O)cc1 [Compound 197, 4-(4-(5-methyl-2-(4-morpholinophenylao)pyrimidin-4-ylthio)phenyl)thiomorpholin-3-one] | < 100 | > 20000
c1cc(Sc2ccc(Cn3cncn3)cc2)nc(Nc2ccc(N3CCOCC3)cc2)n1 [Compound 204, 4-(4-((1H-1,2,4-triazol-1-yl)methyl)phenylthio)-N-(4-morpholinophenyl)pyrimidin-2-ae] | < 500 | < 5000
Cc1cnc(Nc2ccc(N3CCOCC3)cc2)nc1Sc1ccc(C=O)cc1 [Compound 219, 4-(5-methyl-2-(4-morpholinophenylao)pyrimidin-4-ylthio)benzaldehyde] | < 500 | < 5000
N#CCc1ccc(Sc2ccnc(Nc3ccc(N4CCOCC4)cc3)n2)cc1 [Compound 210, 2-(4-(2-(4-morpholinophenylao)pyrimidin-4-ylthio)phenyl)acetonitrile] | < 500 | > 20000
Cc1cnc(Nc2ccc(N3CCOCC3)cc2)nc1Sc1ccc(CO)cc1 [Compound 220, (4-(5-methyl-2-(4-morpholinophenylao)pyrimidin-4-ylthio)phenyl)methanol] | < 100 | < 5000
Cc1cnc(Nc2ccc(N3CCOCC3)cc2)nc1Sc1ccc(NC(=O)CO)cc1 [Compound 229, 2-hydroxy-N-(4-(5-methyl-2-(4-morpholinophenylao)pyrimidin-4-ylthio)phenyl)acetamide] | < 500 | < 20000
Cc1cnc(Nc2cccc(S)c2)nc1Sc1ccc(NC(=O)CCl)cc1 [Compound 195, 2-chloro-N-(4-(2-(3-mercaptophenylao)-5-methylpyrimidin-4-ylthio)phenyl)acetamide] | < 100 | > 20000
N#Cc1ncn(Cc2ccc(Sc3ccnc(Nc4ccc(N5CCOCC5)cc4)n3)cc2)c1N [Compound 202, 5-ao-1-(4-(2-(4-morpholinophenylao)pyrimidin-4-ylthio)benzyl)-1H-imidazole-4-carbonitrile] | < 500 | < 5000
Cc1cnc(Nc2ccc(N3CCOCC3)cc2)nc1Sc1ccc(C(=O)N2CCCC2)cc1 [Compound 224, (4-(5-methyl-2-(4-morpholinophenylao)pyrimidin-4-ylthio)phenyl)(pyrrolidin-1-yl)methanone] | < 500 | > 20000
N#Cc1c(N)ncn1Cc1ccc(Sc2ccnc(Nc3ccc(N4CCOCC4)cc3)n2)cc1 [Compound 203, 4-ao-1-(4-(2-(4-morpholinophenylao)pyrimidin-4-ylthio)benzyl)-1H-imidazole-5-carbonitrile] | < 500 | < 1000
Cc1cnc(Nc2ccc(N3CCOCC3)cc2)nc1Sc1ccc(CC#N)cc1 [Compound 222, 2-(4-(5-methyl-2-(4-morpholinophenylao)pyrimidin-4-ylthio)phenyl)acetonitrile] | < 500 | > 20000
N#Cc1c(N)ncn1Cc1cccc(Sc2ccnc(Nc3ccc(N4CCOCC4)cc3)n2)c1 [Compound 199, 4-ao-1-(3-(2-(4-morpholinophenylao)pyrimidin-4-ylthio)benzyl)-1H-imiazole-5-carbonitrile] | < 500 | < 5000
CON(C)C(=O)c1ccc(Sc2nc(Nc3ccc(N4CCOCC4)cc3)ncc2C)cc1 [Compound 218, N-methoxy-N-methyl-4-(5-methyl-2-(4-morpholinophenylao)pyrimidin-4-ylthio)benzamide] | < 500 | > 20000
Cc1cnc(Nc2ccc(N3CCOCC3)cc2)nc1Sc1ccc(N2C(=O)COCC2=O)cc1 [Compound 190, 4-(4-(5-methyl-2-(4-morpholinophenylao)pyrimidin-4-ylthio)phenyl)morpholine-3,5-dione] | < 100 | > 20000
Cc1cnc(Nc2ccc(N3CCOCC3)cc2)nc1Sc1ccc(C(C#N)N2CCN(C)CC2)cc1 (centres unmarked) [Compound 225, 2-(4-(5-methyl-2-(4-morpholinophenylao)pyrimidin-4-ylthio)phenyl)-2-(4-methylpiperazin-1-yl)acetonitrile] | < 500 | < 5000
C=CC(=O)Nc1cccc(Nc2nccc(SC)n2)c1 [Compound 7, N-(3-(4-(methylthio)pyrimidin-2-ylao)phenyl)acrylamide] | < 100 | < 20000
Cc1cnc(Nc2ccc(O)cc2)nc1Sc1ccc(N)cc1 [Compound 191, 4-(4-(4-aophenylthio)-5-methylpyrimidin-2-ylao)phenol] | < 500 | < 5000
Cc1cnc(Nc2ccc(N3CCOCC3)cc2)nc1Sc1ccc(NC2CCOC2=O)cc1 (centres unmarked) [Compound 228, 3-(4-(5-methyl-2-(4-morpholinophenylao)pyrimidin-4-ylthio)phenylao)dihydrofuran-2(3H)-one] | < 100 | > 20000
